Reference: US20260124309A1, “STAT6 DEGRADERS AND USES THEREOF” (Kymera Therapeutics, Inc., priority 2023, published 2026)

Tests used:
[1] = target: T1, biotinylated truncated STAT6 (123-632)-avi (Homo sapiens, UniProt P42226); test: STAT6 HTRF binding assay; details: HTRF binding, 0.15 nM biotinylated truncated STAT6 (123-632)-avi, 20 nM fluorescein-labeled probe
T1 construct: biotinylated truncated STAT6 (123-632)-avi purified from E. coli; made in house; host or cells: E. coli
T1 sequence (P42226 123-632 limits assumed): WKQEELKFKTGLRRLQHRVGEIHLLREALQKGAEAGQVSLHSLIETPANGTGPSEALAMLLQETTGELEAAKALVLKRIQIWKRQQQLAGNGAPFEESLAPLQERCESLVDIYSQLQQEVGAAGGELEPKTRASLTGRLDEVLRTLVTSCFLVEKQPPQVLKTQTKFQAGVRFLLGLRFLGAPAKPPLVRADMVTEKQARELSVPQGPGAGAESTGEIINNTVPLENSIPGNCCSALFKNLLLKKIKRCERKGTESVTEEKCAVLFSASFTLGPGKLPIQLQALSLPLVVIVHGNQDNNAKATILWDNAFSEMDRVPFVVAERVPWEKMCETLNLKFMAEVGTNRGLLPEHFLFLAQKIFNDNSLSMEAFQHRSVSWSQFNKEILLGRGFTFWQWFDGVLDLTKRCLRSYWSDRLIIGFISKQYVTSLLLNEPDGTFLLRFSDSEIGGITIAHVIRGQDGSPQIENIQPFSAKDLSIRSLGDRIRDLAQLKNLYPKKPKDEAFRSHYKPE
Protocol: HTRF binding assays were performed using 0.15 nM biotinylated truncated STAT6 (123-632)-avi purified from E. coli, 1× Streptavidin-terbium (CisBio) prepared by mixing SA-Tb in PPI detection buffer (CisBio), 20 nM proprietary fluorescein-labeled probe, and test compounds in assay buffer consisting of 50 mM HEPES-Na pH 7.5, 100 mM NaCl, 1 mM EDTA, 2 mM DTT, 0.1% Tween-20 with a final volume of 20 uL. Compound stocks were dissolved at 10 mM in 100% DMSO and 11 point titration with 3 fold serial dilution was performed in white, opaque 384 well microplates. Reaction plates were incubated at room temperature for 30 minutes. Plates were centrifuged at low rpm for 5 mins, and the ratio of fluorescence intensities were measured at emission wavelengths for fluorescein acceptor (520 nm) and terbium donor (495 nm) on Envision Plate reader. % Inhibition was calculated from the 520/495 ratio generated by using proprietary positive control compound for 100% inhibition and DMSO only reactions for 0% inhibition. Data was processed and dose response curves were generated using GraphPad Prism to determine the concentration required for inhibiting 50% of the HTRF signal (IC50).
The letter codes for IC50 (μM) include: A (<0.1 μM); B (0.1-1 μM); C (>1-10 μM); D (>10-100 μM); E (>100 μM); and F (not tested).

[2] = target: T2, STAT6 (Homo sapiens, UniProt P42226); test: STAT6 MSD degradation in A549 cells; type: cell-based; details: 24 h
T2 construct: endogenous in cells; host or cells: A549
T2 sequence (P42226 1-847): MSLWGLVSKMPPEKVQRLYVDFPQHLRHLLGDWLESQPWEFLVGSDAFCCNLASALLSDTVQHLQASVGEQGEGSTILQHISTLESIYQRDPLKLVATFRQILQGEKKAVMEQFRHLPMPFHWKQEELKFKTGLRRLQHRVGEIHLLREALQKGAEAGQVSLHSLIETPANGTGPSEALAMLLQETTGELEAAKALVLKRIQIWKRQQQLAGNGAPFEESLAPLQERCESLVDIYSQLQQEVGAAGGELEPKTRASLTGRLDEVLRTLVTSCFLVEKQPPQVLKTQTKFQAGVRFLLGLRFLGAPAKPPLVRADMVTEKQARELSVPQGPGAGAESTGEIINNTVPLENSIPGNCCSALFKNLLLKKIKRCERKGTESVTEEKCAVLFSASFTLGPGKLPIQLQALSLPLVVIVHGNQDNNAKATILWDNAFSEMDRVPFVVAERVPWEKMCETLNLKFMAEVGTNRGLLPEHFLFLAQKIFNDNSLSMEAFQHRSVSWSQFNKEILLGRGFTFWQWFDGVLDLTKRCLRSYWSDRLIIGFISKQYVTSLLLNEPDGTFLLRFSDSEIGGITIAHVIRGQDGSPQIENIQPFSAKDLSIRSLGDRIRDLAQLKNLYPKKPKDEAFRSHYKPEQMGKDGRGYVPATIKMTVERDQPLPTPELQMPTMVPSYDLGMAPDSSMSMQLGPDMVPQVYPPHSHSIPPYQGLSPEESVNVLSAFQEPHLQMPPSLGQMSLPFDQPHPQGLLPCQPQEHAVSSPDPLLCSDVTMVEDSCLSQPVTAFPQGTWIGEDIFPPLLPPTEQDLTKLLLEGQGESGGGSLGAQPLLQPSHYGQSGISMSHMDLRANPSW
Protocol: Degradation of STAT6 in cells was quantitatively measured using Meso Scale Discovery (MSD) technology. A549 cells were seeded in 96-well plates with a density of 1.5×10e4 to 5×10e5 cells per well in 100 μl fresh media. Compounds were then added to the assay plates with a final top concentration of up to 10 uM in a 1:3 dilution series with total of 9 doses. The assay plates were then incubated for 4 to 24 hours at 37° C. under 5% CO2. The assay plates were then centrifuged for 5 minutes and the cell pellets were treated with 100 μl/well RIPA lysis buffer (Boston Bioproducts, BP-115D) with protease and phosphatase inhibitors (Roche, 05892791001 and 04906837001). To prepare the MSD assay plates (MSD, L15XA), the plates were coated with the capture antibody (Abnova, H00006778) in PBS, at 40 μl/well. The plates were then incubated overnight at 4° C., washed 1 time with 150 μl/well TBST buffer (Cell Signaling Technology, #9997S) and blocked with 150 μl/well blocking buffer (MSD, R93BA-4). Cell lysates were then added to MSD assay plates and the plates were incubated at room temperature for 1 hour. The plates were then washed 3 times with 150 μl/well TBST buffer and 25 μl/well primary detection antibody (Cell Signaling Technology, #5397S). The assay plates were then incubated at room temperature for 1 hour, washed 3 times with 150 μl/well TBST buffer, and 25 μl/well secondary detection antibody, SULFO-TAG anti-rabbit antibody (MSD, R32AB-1) were added. The assay plates were then incubated at room temperature for 1 hour, washed 3 times with 150 μl/well TBST buffer, and 150 μl/well MSD reading buffer (MSD, R92TC-2) were added. The plates were then analyzed by an MSD reader. The data was analyzed by GraphPad Prism and the dose dependent STAT6 degradation was fit using the four-parameter inhibitor vs. response nonlinear regression.
The letter codes for DC50 (nM) include: A (<1 nM); B (1-10 nM); C (>10-100 nM); D (>100-1000 nM); E (>1000 nM); and F (not tested). The letter codes for Dmax (oo) include: A (>90%); B (>70-90%); C (>50-70%); D ([…]); and F (not tested).

[3] = target: T3, STAT6-HiBiT (Homo sapiens, UniProt P42226); test: STAT6 HiBiT degradation in A549 (STAT6-HiBiT) cells; type: cell-based; details: 24 h
T3 construct: Degradation of STAT6 in endogenously tagged STAT6-HiBiT A549 cells; endogenous in cells; host or cells: A549 (STAT6-HiBiT) knock-in cells
T3 sequence (P42226 1-847): T2 sequence (P42226 1-847)
Protocol: Degradation of STAT6 in endogenously tagged STAT6-HiBiT A549 cells was quantitatively measured using the Nano-Glo HiBiT Lytic Detection System (Promega, 3040). A549 (STAT6-HiBiT) cells were seeded in 384-well plates with a density of 1.25k cells per well in 20 μl fresh media. Compounds were then added to the assay plates using the Apricot S3 with a final top concentration of up to 10 uM in a 4-fold dilution series with total of 10 doses. The assay plates were then incubated for 24 hours at 37° C. under 5% CO2. At the assay endpoint, 20 μL of Nano-Glo HiBiT Lytic Reagent was added to each well and agitated on a plate shaker at 300 rpm for 10 minutes at room temperature. Luminescence was read on PHERAStar FSX Instrument (Is integration time). The data was analyzed by GraphPad Prism and the dose dependent STAT6 degradation was fit using the four-parameter inhibitor vs. response nonlinear regression.
The letter codes for DC50 (nM) include: A (<1 nM): B (1-10 nM); C (>10-100 nM); D (>100-1000 nM); E (>1000 nM); and F (not tested). The letter codes for Dmax (%) include: A (>90%); B (>70-90%); C (>50-70%); D (<50%); and E (not tested).

CN(C)C(=O)c1cc2c(-c3ccc(C4CCN(c5ccc(C6CCC(=O)NC6=O)cc5F)CC4)cc3)cc(C3=CCCN(C(=O)CCn4ccnn4)C3)c(F)c2[nH]1 (centres unmarked) [Example I-1015, 6-(1-(3-(1H-1,2,3-triazol-1-yl)propanoyl)-1,2,5,6-tetrahydropyridin-3-yl)-4-(4-(1-(4-(2,6-dioxopiperidin-3-yl)-2-fluorophenyl)piperidin-4-yl)phenyl)-7-fluoro-N,N-dimethyl-1H-indole-2-carboxamide]
IC50 [1]: < 100 nM
DC50 [2]: < 1 nM
Dmax [2]: 70 to 90%
DC50 [3]: < 1 nM
Dmax [3]: > 90%
